Patent publication US9132108B2, “Pharmaceutical composition for ameliorating and/or preventing leptin resistance, and use thereof” (HIROSHIMA UNIVERSITY, priority 2009, dated 2015)

Legend:
Type in all cases: in vivo, mouse
[1] = system: blood glucose level; experiment: Glucose tolerance test after 8 weeks of diet (Example 4); details: 10 mg/kg per day orally
Source text: In view of the above, Example 4 discussed whether it is possible to evaluate induction of leptin resistance by measuring a change in blood glucose level by the glucose tolerance test as a reference index. At the same time, Example 4 discussed whether administration of flurbiprofen can prevent induction of leptin resistance, by measuring a change in blood glucose level by the glucose tolerance test as a reference index. Specifically, 4 weeks-old mice (C57BL/6 Cr Slc) were divided into four groups each consisting of 14-16 mice. Mice of individual groups were given diets as follows for 8 weeks similarly with Example 3. • Group 1: Normal diet (10 kcal % fat) only • Group 2: High-fat diet (60 kcal % fat) only • Group 3: Normal diet+flurbiprofen • Group 4: High-fat diet+flurbiprofen Flurbiprofen (F8514, produced by SIGMA) was diluted with drinking water so that the administration amount of flurbiprofen would be 10 mg/kg per day, and was orally administered to the mice in the form of drinking water. […] In Example 4, mice were fasted overnight for 17 hours, and fasted blood glucose level (pre) was measured by Freestyle freedom (NIPRO CORPORATION, blood glucose self-monitoring system) at 10:00 a.m. […] Blood glucose level was measured by Freestyle freedom (NIPRO CORPORATION, blood glucose self-monitoring system) 30 minutes, 1 hour, and 2 hours after the administration. […]

[2] = system: mice; experiment: Amount of mice water intake (Example 12); details: 10 mg/kg per day orally in drinking water; normal or high-fat diet
Procedure: In order to measure the amount of mice water intake, 4 weeks-old male mice (C57BL/6 Cr Slc) were divided into four groups (each consisting of 7-8 mice), were isolated from one another so that there would be one mouse per cage. The mice were then habituated for 2 days. The amount of mice water intake was measured every 24 hours for 4 days from the forenoon on the second day of the habituation, and the amount of mice water intake for 4 days was summed up. • Group 1: Normal diet (10 kcal % fat) only • Group 2: High-fat diet (60 kcal % fat) only • Group 3: Normal diet+flurbiprofen • Group 4: High-fat diet+flurbiprofen Flurbiprofen (F8514, produced by SIGMA) was diluted with drinking water so that the administration amount of flurbiprofen would be 10 mg/kg per day, and was orally administered to the mice in the form of drinking water. FIG. 18 is a graph showing the result of the measurement of the amount of mice water intake. Values in the graph of FIG. 18 are averages of the total amounts (g) of water intake of mice of each group for 4 days (± their standard deviations) (n=7-8 with respect to each group). Further, statistic analysis was carried out using t-test.

[3] = system: STAT3 phosphorylation in hypothalami; experiment: Western blotting of STAT3 phosphorylation in hypothalami 30 min after leptin injection (Example 2); details: Group 4 (high-fat diet+flurbiprofen) vs Group 2; approximately 10 mg/kg per day orally, 8 weeks; 30 minutes after leptin 1 mg/kg via tail vein; significance level <1%
Procedure: 4 weeks-old male mice (C57BL/6 Cr Slc) had been given normal diet (10 kcal % fat, D12450B, produced by Research Diets, Inc.) or high-fat diet (60 kcal % fat, D12492, produced by Research Diets, Inc.). Flurbiprofen was diluted with drinking water so that the administration amount of flurbiprofen would be approximately 10 mg/kg per day, and was orally administered to the mice in the form of drinking water.
Specifically, mice were divided into four groups each consisting of 7-8 mice. Mice of individual groups were given diets as follows. • Group 1: Normal diet (10 kcal % fat) only • Group 2: High-fat diet (60 kcal % fat) only • Group 3: Normal diet+flurbiprofen • Group 4: High-fat diet+flurbiprofen
A solution prepared by solving mouse-derived leptin (450-31, produced by PeproTech Inc. or 498-OB, rmLeptin, produced by R&D systems) in physiological saline was non-orally administered via tail vein to the mice, which had been given high-fat diet or normal diet for 8 weeks. The non-oral administration was done in such a manner that the administration amount of leptin would be 1 mg/kg. As a control for leptin administration, physiological saline in equal amount was administered to the mice via tail vein.
FIGS. 4 and 5 show the result of Western blotting of STAT3 phosphorylation in hypothalami of mice 30 minutes after leptin injection. […]

[4] = system: mice given high-fat diet; experiment: High-fat diet-induced accumulation of visceral fat (Example 5); details: Group 4 (high-fat diet+flurbiprofen) vs Group 2; 10 mg/kg per day orally, 8 weeks; significance level <5%
Procedure: 4 weeks-old mice (C57BL/6 Cr Slc) were divided into four groups each consisting of 7-8 mice. Mice of individual groups were given diets as follows for 8 weeks similarly with Example 4. • Group 1: Normal diet (10 kcal % fat) only • Group 2: High-fat diet (60 kcal % fat) only • Group 3: Normal diet+flurbiprofen • Group 4: High-fat diet+flurbiprofen Flurbiprofen (F8514, produced by SIGMA) was diluted with drinking water so that the administration amount of flurbiprofen would be 10 mg/kg per day, and was orally administered to the mice in the form of drinking water. The mice raised for 8 weeks with high-fat diet or normal diet were cut open along a median line, and the amount of fatty tissue (visceral fat) was measured. Visceral fat was extracted from the abdomen of a mouse, and wet weight of the fat was measured. […] FIG. 9 is a graph showing the amounts of fat contents of mice of individual groups to which flurbiprofen had been administered for 8 weeks. Values in the graph of FIG. 9 are averages of the amounts (g) of fat of mice of each group (± their standard deviations) (n=7-8 with respect to each group). Further, statistic analysis was carried out using t-test.

Question: Which results are given for `C[C@@H](C(=O)O)c1ccc(-c2ccccc2)c(F)c1` [flurbiprofen]?
Answer: blood glucose level in glucose tolerance test ([1]; Group 3 (normal diet+flurbiprofen) vs Group 1 (normal diet)): no significant difference in blood glucose level; blood glucose level in glucose tolerance test ([1]; Group 4 (high-fat diet+flurbiprofen), 1 hour after glucose 2 g/kg i.p., significant difference vs Group 2): rapidly decreased blood glucose level; total amount of water intake for 4 days [2]: constant regardless of whether flurbiprofen was administered or not; intensity of STAT3 phosphorylation in hypothalami [3]: significantly higher; amount of fat content (visceral fat, wet weight) [4]: significant decrease in the amount of fat content
